Measured values as given in ChEMBL document CHEMBL1150543, “Semisynthesis and biological evaluation of brevifoliol 13-[N-benzoyl-(-2R,3S)-3-phenylisoserinate]” (1993).

Assays:
[1] = tested on: B16; experiment: Effective dose against B16 melanoma cells in microtubule assembly assay; type: functional; settings: Mus musculus, read-out: ED50 (the source's name)
[2] = tested on: B16; experiment: Effective dose against B16 melanoma cells in cytotoxicity assay; type: functional; settings: Mus musculus, read-out: ED50 (the source's name)

- EC50 [1]: 1000 nM
SMILES: CC(=O)O[C@H]1C(=O)[C@@]2(C)[C@H]([C@H](OC(=O)c3ccccc3)[C@]3(O)C[C@H](OC(=O)[C@H](O)[C@@H](NC(=O)c4ccccc4)c4ccccc4)C(C)=C1C3(C)C)[C@]1(OC(C)=O)CO[C@@H]1C[C@@H]2O [PACLITAXEL]
- EC50 [2]: 27 nM
